# Experimental data published in paper PMC12389534, “Unlocking Therapeutic Potential of Novel Thieno-Oxazepine Hybrids as Multi-Target Inhibitors of AChE/BChE and Evaluation Against Alzheimer’s Disease: In Vivo, In Vitro, Histopathological, and Docking Studies” (Pharmaceuticals, 2025).
# What was measured:
# [1] = test system: AlCl3-induced AD rat model; assay: Morris water maze (MWM) test in AlCl3-induced AD rats; type: in vivo; conditions: for Learning (s): escape latency; for Learning (s) / Memory (s): mean ± SE, n = 6; for Memory (s): time spent in target quadrant
# Protocol: All procedures were conducted conforming to the applicable National Institutes of Health standards and regulations for the Care and Use of Laboratory Animals. In this experiment, adult male Dawley rats in excellent condition weighing between 300 and 320 g were used. The animals were acquired from the Nile Company for Pharmaceuticals and Chemical Industries (Cairo, Egypt). They were placed in a controlled laboratory setting with unrestricted access to water, a temperature range of 24 to 26 °C, and 12 h a light–dark cycle. Three rats per cage were housed in polycarbonate cages that were individually packed with paper and encased with stainless steel wire.
# Spatial learning and memory were inspected using the MWM test. Tap water was poured into a 150 cm diameter by 60 cm high circular water tank until it reached a depth of 30 cm (25 ± 2 °C). To make the water […], non-toxic white dye was applied. The east, west, north, and south quadrants of the pool were essentially separated into four equal sections. At a specific spot in the middle of one quadrant, an escape platform with a diameter of 10 cm was submerged 2 cm below the water’s surface. The platform stood in the exact same quadrant throughout the testing. The rats’ swimming route was recorded by a video camera situated above the pool. From a designated spot in each quadrant, each rat was submerged in the water with its back turned to the pool wall, and it was then left to swim to the platform. The rats received training sessions every day for three days in a row, with four trials conducted in each session. Before the next trial began, the animals were kept a maximum of 60 s to explore the hidden platform. After that, they were permitted to relax on it for 20 s. The rat was positioned gently on the platform and allowed 20 s to rest if it took longer than 60 s to locate it. The time taken to find the platform, or the escape latency, was documented. In order to do a probing test on the fourth day, the platform was detached away, and the rats were given 60 s to swim liberally. The time spent in the assigned quadrant was counted.
# [2] = test system: BACE1; assay: Brain BACE1 level (ELISA); type: in vivo, rat; set-up: reduction of BACE1 levels: concentration or dose not given beside the values; conditions: AlCl3-induced AD rats; for BACE1 (ng/mL): mean ± SE, n = 6
# Protocol: (§1) The brain tissues of the rats were removed and rigorously washed in isotonic saline 24 h after they were euthanized following the last behavioral test. For histological investigation, four brains per group were preserved for the whole night in 10% neutral buffered formalin. The remaining six brains were split into two sections each. In order to create a 10% homogenate (w/v), the first component was instantaneously homogenized using an ice-cold solution that included 300 mM sucrose and 50 mM Tris-HCl (pH 7.4). The homogenate was centrifuged at 1800× g for 10 min at 4 °C for biochemical tests, and the supernatant was thereafter kept at −20 °C. The second portion was set aside for use in RT-PCR analysis at −80 °C [94]. […]
# [3] = test system: Amyloid-β; assay: Brain amyloid-β level (ELISA); type: in vivo, rat; set-up: reduction of β-amyloid levels: concentration or dose not given beside the values; conditions: AlCl3-induced AD rats; for Amyloid-β (ng/g Tissue): brain, mean ± SE, n = 6
# Protocol: (§2) The brain tissues of the rats were removed and rigorously washed in isotonic saline 24 h after they were euthanized following the last behavioral test. For histological investigation, four brains per group were preserved for the whole night in 10% neutral buffered formalin. The remaining six brains were split into two sections each. In order to create a 10% homogenate (w/v), the first component was instantaneously homogenized using an ice-cold solution that included 300 mM sucrose and 50 mM Tris-HCl (pH 7.4). The homogenate was centrifuged at 1800× g for 10 min at 4 °C for biochemical tests, and the supernatant was thereafter kept at −20 °C. The second portion was set aside for use in RT-PCR analysis at −80 °C [94].
# (§3) See Supplementary Information.
# [4] = test system: DA; assay: Brain DA level (fluorometric); type: in vivo, rat; conditions: AlCl3-induced AD rats; for DA (ng/g Tissue): brain tissue, mean ± SE, n = 6
# Protocol: as §2
# Brain monoamine levels were promptly assessed following the rats’ euthanasia to prevent changes in the substance’s concentration. Dopamine (DA), norepinephrine (NE), and serotonin (5-HT) fluorometric tests were conducted on brain tissue homogenate using the Ciarlone method. […] The concentrations were articulated as nanograms per gram of fresh tissue using the fluorescence of reference solutions [95].
# [5] = test system: AChE; type: in vivo; set-up: reduction in AChE levels: concentration or dose not given beside the values; conditions: AlCl3-induced AD rats; for AChE (ng/g Tissue): brain tissue, mean ± SE, n = 6; for reduction in AChE levels: brain
# [6] = test system: TNF-α; assay: Brain TNF-α level (ELISA); type: in vivo, rat; conditions: AlCl3-induced AD rats; for TNF-α (pg/g Tissue): mean ± SE, n = 6
# Protocol: as §1
# [7] = test system: IL-1β; assay: Brain IL-1β level (ELISA); type: in vivo, rat; set-up: reduction in IL-1β levels: concentration or dose not given beside the values; conditions: AlCl3-induced AD rats; for IL-β (pg/g Tissue): mean ± SE, n = 6
# Protocol: as §1
# [8] = test system: TLR4; assay: TLR4 mRNA expression (RT-qPCR); type: in vivo, rat; set-up: reduction of TLR4 mRNA expression: concentration or dose not given beside the values; conditions: AlCl3-induced AD rats; for TLR4: mRNA expression level, mean ± SE, n = 6
# Protocol: as §2, §3
# [9] = test system: NLRP3; assay: NLRP3 mRNA expression (RT-qPCR); type: in vivo, rat; set-up: reduction of NLRP3 mRNA expression: concentration or dose not given beside the values; conditions: AlCl3-induced AD rats; for NLRP3: mRNA expression level, mean ± SE, n = 6
# Protocol: as §2, §3
# [10] = test system: BAX; assay: BAX gene expression (RT-qPCR); type: in vivo, rat; conditions: AlCl3-induced AD rats; for BAX: gene expression, mean ± SE, n = 6
# Protocol: as §2, §3
# [11] = test system: Bcl-2; assay: Bcl-2 gene expression (RT-qPCR); type: in vivo, rat; conditions: AlCl3-induced AD rats; for Bcl-2: gene expression, mean ± SE, n = 6
# Protocol: as §2, §3
# [12] = test system: Wnt3a; assay: Brain Wnt3a level; type: in vivo, rat; conditions: AlCl3-induced AD rats; for Wnt3a (ng/g Tissue): mean ± SE, n = 6
# Protocol: as §2, §3
# [13] = test system: GSK3β; assay: GSK3β gene expression (RT-qPCR); type: in vivo, rat; conditions: AlCl3-induced AD rats; for GSK3β: gene expression, mean ± SE, n = 6
# Protocol: as §2, §3
# [14] = test system: β-catenin; assay: Brain β-catenin level; type: in vivo, rat; conditions: AlCl3-induced AD rats; for β-Catenin (ng/L): mean ± SE, n = 6
# Protocol: as §2, §3
# [15] = test system: SOD; assay: Brain SOD activity (colorimetric); type: in vivo, rat; conditions: AlCl3-induced AD rats; for SOD(U/g): brain tissue, mean ± SE, n = 6
# Protocol: as §2
# The SOD enzyme activity was estimated using the Marklund et al. method, which is founded on the enzyme’s capacity to decrease the nitro blue tetrazolium dye at a wavelength of 540 nm. To evaluate the TAC, a colorimetric approach was employed to estimate the amount of hydrogen peroxide that remains after 3,5-dichloro-2-hydroxybenzene sulphonate is converted to a colored product at 660 nm.
# [16] = test system: HO-1; assay: HO-1 mRNA expression (RT-qPCR); type: in vivo, rat; conditions: AlCl3-induced AD rats; for HO-1: mRNA expression in brain tissue, mean ± SE, n = 6
# Protocol: as §2, §3
Compound,Learning (s) [1],Memory (s) [1],reduction of BACE1 levels [2],BACE1 (ng/mL) [2],reduction of β-amyloid levels [3],Amyloid-β (ng/g Tissue) [3],DA (ng/g Tissue) [4],AChE (ng/g Tissue) [5],reduction in AChE levels [5],decline in TNF-α levels [6],TNF-α (pg/g Tissue) [6],reduction in IL-1β levels [7],IL-β (pg/g Tissue) [7],TLR4 [8],NLRP3 [9],BAX [10],Bcl-2 [11],elevation of Wnt3a levels [12],Wnt3a (ng/g Tissue) [12],GSK3β [13],further results
"CCOC(=O)c1c(O)sc2c1CCCCC2 [Compound 2, Ethyl 2-hydroxy-5,6,7,8-tetrahydro-4H-cyclohepta[b]thiophene-3-carboxylate]",33.33 ± 0.8 ^abc s,24.17 ± 1.22 ^abc s,20.4%,23.60 ± 0.2 ^abc ng/mL,30.2%,19.52 ± 0.15 ^abc ng/g Tissue,24.71 ± 1.62 ^abc ng/g Tissue,51.41 ± 0.13 ^abc ng/g Tissue,23.6%,31%,121.4 ± 0.97 ^abc pg/g Tissue,20.6%,93.93 ± 1.26 ^abc pg/g Tissue,7.66 ± 0.12 ^abc,8.29 ± 0.09 ^abc,8.13 ± 0.070 ^abc,0.27 ± 0.007 ^abc,2 fold,0.25 ± 0.01 ^abc ng/g Tissue,8.80 ± 0.12 ^abc,reduction in escape latency [1]: 32.2%; suppression of BAX gene expression [10]: 16%; reduction of GSK3β gene expression [13]: 13.7%; elevation of β-catenin levels [14]: 2.7 fold; β-Catenin (ng/L) [14]: 4.262 ± 0.12 ^abc ng/L; SOD(U/g) [15]: 0.68 ± 0.26 ^abc U/g; HO-1 [16]: 0.34 ± 0.032 ^abc
"CCOC(=O)c1c(OC(=O)CCl)sc2c1CCCCC2 [Compound 4, Ethyl 2-(2-chloroacetoxy)-5,6,7,8-tetrahydro-4H-cyclohepta[b]thiophene-3-carboxylate]",31.5 ± 1.48 ^abc s,26.67 ± 1.54 ^abc s,26.2%,21.89 ± 0.27 ^abc ng/mL,38.9%,17.05 ± 0.2 ^abc ng/g Tissue,30.69 ± 1.2 ^abc ng/g Tissue,43.89 ± 0.19 ^abc ng/g Tissue,34.8%,35.4%,113.6 ± 0.83 ^abc pg/g Tissue,30%,82.82 ± 1.1 ^abc pg/g Tissue,6.39 ± 0.12 ^abc,6.30 ± 0.09 ^abc,7.42 ± 0.030 ^abc,0.38 ± 0.020 ^abc,2.8 fold,0.34 ± 0.01 ^abc ng/g Tissue,6.86 ± 0.15 ^abc,reduction in escape latency [1]: 35.9%; suppression of BAX gene expression [10]: 23.3%; reduction of GSK3β gene expression [13]: 32.7%; elevation of β-catenin levels [14]: 3.9 fold; β-Catenin (ng/L) [14]: 6.17 ± 0.07 ^abc ng/L; SOD(U/g) [15]: 1.75 ± 0.31 ^abc U/g; SOD activity levels ([15]; brain): 1.75 U/g tissue; HO-1 [16]: 0.39 ± 0.007 ^abc
"O=C1CN(c2ccccc2)C(=O)c2c(sc3c2CCCCC3)O1 [Compound 11, 4-Phenyl-3,4,7,8,9,10-hexahydro-6H-cyclohepta[4,5]thieno[3,2-f][1,4]oxazepine-2,5-dione]",25.17 ± 1.25 ^abc s,35.17 ± 0.95 ^abc s,36.5%,18.83 ± 0.13 ^abc ng/mL,48.9%,14.25 ± 0.16 ^abc ng/g Tissue,54.63 ± 6.11 ^abc ng/g Tissue,20.09 ± 0.45 ^abc ng/g Tissue,70.1%,43.6%,99.23 ± 0.42 ^abc pg/g Tissue,42.1%,68.56 ± 0.54 ^abc pg/g Tissue,5.56 ± 0.1 ^abc,5.39 ± 0.11 ^abc,6.84 ± 0.090 ^abc,0.52 ± 0.020 ^abc,3.9 fold,0.47 ± 0.01 ^abc ng/g Tissue,2.34 ± 0.06 ^abc,increase in quadrant residence time [1]: 3.5 times; elevation of DA levels [4]: 4.6 fold; reduction of TLR4 mRNA expression [8]: 42.2%; reduction of NLRP3 mRNA expression [9]: 49.5%; suppression of BAX gene expression [10]: 29.3%; upregulation of Bcl-2 gene expression [11]: 4.3 fold; elevation of β-catenin levels [14]: 4.8 fold; β-Catenin (ng/L) [14]: 7.25 ± 0.04 ^abc ng/L; SOD(U/g) [15]: 2.46 ± 0.32 ^abc U/g; elevation of HO-1 mRNA expression [16]: 4.4 fold; HO-1 [16]: 0.53 ± 0.004 ^abc
"O=C1CN(c2ccc(Cl)cc2)C(=O)c2c(sc3c2CCCCC3)O1 [Compound 12, 4-(4-Chlorophenyl)-3,4,7,8,9,10-hexahydro-6H-cyclohepta[4,5]thieno[3,2-f][1,4]oxazepine-2,5-dione]",23.5 ± 1.23 ^abc s,37.17 ± 1.52 ^abc s,53.9%,13.68 ± 0.2 ^abc ng/mL,62.3%,10.51 ± 0.1 ^abc ng/g Tissue,38.37 ± 2.86 ^abc ng/g Tissue,35.66 ± 0.19 ^abc ng/g Tissue,47%,62.5%,65.98 ± 0.91 ^abc pg/g Tissue,53.9%,54.51 ± 1.3 ^abc pg/g Tissue,2.75 ± 0.06 ^abc,3.21 ± 0.12 ^abc,4.85 ± 0.110 ^abc,0.82 ± 0.020 ^abc,6.3 fold,0.76 ± 0.01 ^abc ng/g Tissue,5.36 ± 0.07 ^abc,increase in quadrant residence time [1]: 3.7 times; elevation of DA levels [4]: 3.2 fold; reduction of TLR4 mRNA expression [8]: 71.4%; reduction of NLRP3 mRNA expression [9]: 69.9%; upregulation of Bcl-2 gene expression [11]: 6.8 fold; reduction of GSK3β gene expression [13]: 47.4%; elevation of β-catenin levels [14]: 6.3 fold; β-Catenin (ng/L) [14]: 9.91 ± 0.15 ^abc ng/L; SOD(U/g) [15]: 2.15 ± 0.39 ^abc U/g; elevation of HO-1 mRNA expression [16]: 5.7 fold; HO-1 [16]: 0.69 ± 0.020 ^abc
